Source: patent US20120177693A1, “DEEP LUNG PULMONARY DELIVERY OF TREPROSTINIL” (Aradigm Corporation, priority 2008, published 2012)

Assays:
[1] = Venous plasma pharmacokinetics of inhaled treprostinil via AERx Essence or Nebu-Tec Optineb, 14 healthy male subjects
Protocol: On each of two dosing days, eligible subjects underwent dosing with ^99mTc-labeled treprostinil sodium using either the AERx Essence System or the Nebu-Tec Optineb nebulizer. Following their initial study dose, subjects underwent a washout period of approximately 48 hours before completing a second (crossover) study dose.
Immediately following each study dose, subjects underwent gamma scintigraphy and multiple samplings of venous blood to characterize treprostinil lung deposition and plasma pharmacokinetics.
To evaluate treprostinil plasma pharmacokinetics, 16 venous blood samples were drawn into 7.5 ml Potassium EDTA monovette tubes following each study dose (i.e., Essence and Optineb). Sampling occurred approximately 1 hour prior to dosing and at +2, +3, +5, +7, +10, +15, +20, +30, +60, +90, +120, +180, +240, +300, and +360 minutes after the start of each study dose. Thus, a total of 32 blood samples (˜250 mL) were collected for pharmacokinetic assessment over the two dosing days. Immediately upon sampling the sample was identified with a bar coded label bearing details of study number, subject number, sampling time point, sample type and a unique 9 digit identification number. The sample was separated by centrifugation at 1500×g and 4° C. for 10 minutes. Two equal aliquots of plasma/serum were transferred to 2 polypropylene tubes labelled identically to the original blood sample and stored at approximately −20° C. pending analysis. The time at which samples were taken, received into the separating room and placed in the freezer was recorded in the study documentation.
The pharmacokinetic parameters Cmax, AUCT and AUCI were normalised for the dose delivered to the lung, as determined from the scintigraphy data (Tables 14.2.1.5 & 14.2.1.6).

[2] = male, human, in vivo
[3] = Safety and tolerability of inhaled treprostinil sodium (adverse events, laboratory, vital signs, ECG, spirometry), 14 healthy male subjects
[4] = via Nebu-Tec, Geometric LS means, dose-normalised for the calculated dose to lung (μg)
[5] = via Optineb, Mean, normalised for dose to lung

CCCCC[C@H](O)CC[C@@H]1[C@H]2Cc3cccc(OCC(=O)[O-])c3C[C@H]2C[C@H]1O.[Na+] [treprostinil, (1R,2R,3aS,9aS)-[[2,3,3a,4,9,9a-Hexahydro-2-hydroxyl-1-[(3S)-3-hydroxyoctyl]-1H-benz[f]inden-5-yl]oxy]acetic acid monosodium salt]
Tmax ([1]; via AERx, Min): 7.02 min
Vz_F_obs ([1]; via AERx, Min): 21692.705 mL
Dose-normalised AUCI [1, 4]: 0.028 ng·h/mL
Dose-normalised AUCT [1, 4]: 0.027 ng·h/mL
Dose-normalised Cmax [1, 4]: 0.037 ng/mL
Cmax_D ([1]; via Optineb, GM): 0.037 ng/mL/µg
Vz_F_obs ([1]; via Optineb, GM): 32721.114 mL
AUCINF—obs ([1]; via Optineb, Max): 0.852 ng·h/mL
AUClast ([1]; via Optineb, Max): 0.816 ng·h/mL
Cmax ([1]; via Optineb, Max): 1.559 ng/mL
Cmax_D ([1]; via Optineb, Max): 0.069 ng/mL/µg
T1/2 ([1]; via Optineb, Max): 66.42 min
Tmax ([1]; via Optineb, Max): 20 min
Vz_F_obs ([1]; via Optineb, Max): 92051.057 mL
AUCINF_obs_D (dose normalised AUCI) [1, 5]: 0.030 ng·h/mL/µg
AUClast_D (dose normalised AUCT) [1, 5]: 0.029 ng·h/mL/µg
Cmax_D (dose normalised Cmax) [1, 5]: 0.041 ng/mL/µg
Cmax_D ([1]; via Optineb, Median): 0.037 ng/mL/µg
Vz_F_obs ([1]; via Optineb, Median): 32525.036 mL
AUCINF—obs ([1]; via Optineb, Min): 0.360 ng·h/mL
AUClast ([1]; via Optineb, Min): 0.315 ng·h/mL
Cmax ([1]; via Optineb, Min): 0.312 ng/mL
Cmax_D ([1]; via Optineb, Min): 0.017 ng/mL/µg
T1/2 ([1]; via Optineb, Min): 25.6 min
Tmax ([1]; via Optineb, Min): 4.98 min
Vz_F_obs ([1]; via Optineb, Min): 16866.083 mL
Adverse events considered possibly related to the study medication [2]: 15
Adverse events considered probably related to study medication [2]: 11
Adverse events considered unlikely related to the study medication [2]: 1
Adverse events recorded as mild in intensity [2]: 23
Adverse events recorded as moderate in intensity [2]: 4
Number of Subjects (% brackets) with CHEST DISCOMFORT [2]: 2 (14.3)
Number of Subjects (% brackets) with COUGH [2]: 6 (42.9)
Number of Subjects with CHEST DISCOMFORT, relationship POSSIBLE [2]: 1
Number of Subjects with CHEST DISCOMFORT, relationship PROBABLE [2]: 1
Number of Subjects with CHEST DISCOMFORT, relationship UNLIKELY [2]: 0
Number of Subjects with COUGH, relationship UNLIKELY [2]: 0
Number of Subjects with DIZZINESS, relationship POSSIBLE [2]: 2
Number of Subjects with DIZZINESS, relationship PROBABLE [2]: 0
Number of Subjects with DIZZINESS, relationship UNLIKELY [2]: 0
Number of Subjects with DRY THROAT, relationship POSSIBLE [2]: 1
Number of Subjects with DRY THROAT, relationship PROBABLE [2]: 0
Number of Subjects with DRY THROAT, relationship UNLIKELY [2]: 0
Number of Subjects with DYSPNOEA, relationship POSSIBLE [2]: 0
Number of Subjects with DYSPNOEA, relationship PROBABLE [2]: 1
Number of Subjects with DYSPNOEA, relationship UNLIKELY [2]: 0
Number of Subjects with HEADACHE, relationship PROBABLE [2]: 0
Number of Subjects with HEADACHE, relationship UNLIKELY [2]: 0
Number of Subjects with PHARYNG[…], relationship POSSIBLE [2]: 1
Number of Subjects with PHARYNG[…], relationship PROBABLE [2]: 0
Number of Subjects with PHARYNG[…], relationship UNLIKELY [2]: 0
Number of Subjects with PLEURITIC PAIN, relationship POSSIBLE [2]: 0
Number of Subjects with PLEURITIC PAIN, relationship PROBABLE [2]: 1
Number of Subjects with PLEURITIC PAIN, relationship UNLIKELY [2]: 0
Number of Subjects with SYNCOPE VASOVAGAL, relationship POSSIBLE [2]: 1
Number of Subjects with SYNCOPE VASOVAGAL, relationship PROBABLE [2]: 0
Number of Subjects with SYNCOPE VASOVAGAL, relationship UNLIKELY [2]: 0
Total treatment emergent adverse events [2]: 27
Vaso-vegal episode, duration [2]: 14 min
Vaso-vegal episode, time of occurrence after administration [2]: 22 min
Changes in laboratory parameters ([3]; biochemistry, hematology, urinalysis): no clinically-significant changes
Serious Adverse Events (SAE's) or Suspected Unexpected Serious Adverse Reactions (SUSAR's) ([3]; both devices): no Serious Adverse Events
Tolerability in healthy subjects ([3]; for inhalation): well-tolerated
Changes in laboratory parameters, physical examination, vital signs, respiratory function or ECGs ([3]; human, in vivo): no clinically-significant changes
Changes in vital signs (blood pressure, pulse and oral temperature) ([3]; human, in vivo, po): no clinically-significant changes
Number of Subjects (% brackets) with […] ([3]; via AERx Essence): 0
Number of Subjects (% brackets) with […] ([3]; via Nebu-Tec Optineb): 1 (7.1)
Number of Subjects with […], relationship POSSIBLE ([3]; via Nebu-Tec Optineb): 0
Number of Subjects with […], relationship PROBABLE ([3]; via Nebu-Tec Optineb): 0
Number of Subjects with […], relationship UNLIKELY ([3]; via Nebu-Tec Optineb): 1
